What was measured:
[1] = target: Lyn (Homo sapiens, UniProt P07948); assay: biochemical kinase screening assay
[2] = tested on: A431 tumor xenografts; assay: in vivo radio sensitizing study, A431 xenograft; set-up: species or system mice; conditions: for Normalized Tumor Growth Delay: versus drug alone; for Tumor Growth Delay: versus vehicle control
Text: Female Balb/c nude mice (Age 6 weeks) were inoculated on the right hind limb with 3×10^6 A431 cells in PBS and allowed the tumor to grow to a mean tumor volume ˜100 mm^3. The mice were randomized into groups of 10 animals each group.
The unanaesthetized mice were then subjected to radiation. Radiation was delivered using a 6 MeV high dose rate electron beam from a Varian 2100 Linear Accelerator (Palo Alto, Calif.). The dose rate used was 20 Gy/min. The depth-dose characteristics of the electron beam were such that dose uniformity to within ±5 % was obtained over a 10 mm depth of tissue. This was sufficient to cover all tumor irradiated. The tumor was irradiated though a 25 mm square collimator cut from 3 mm thick lead sheet attached to a 6 mm thick Perspex sheet. The separation between the tumor and the lower (Perspex) side of the surface collimator was approximately 25 mm. The apparatus was supported on a plate heated to 37° C. in order to reduce the effects of heat loss in the mice. Radiation doses were calculated and delivered by a senior radiation physicist. Radiotherapy was given as described above on Days 0-4 as 2, 3 or 4 Gy daily fractions.
The solution was prepared immediately prior to dosing and (15 mg/kg) was administered by intraperitoneal injection at 15 mg/kg on Days 0-4 immediately following radiotherapy. The above solution that contains no Compound 1 is considered as the “drug vehicle” or “vehicle”. Drug vehicle was administered at 0.1 ml/10 g body weight on the same schedule.
Each group of mice were treated with Compound 1 only, radiation only, or the combination of Compound 1 and radiation. Animals were sacrificed when Tumor Volume Ratio (TVR) reached or exceeded 4 or if the mouse had lost more than 15% of its baseline body weight at Day 0. Tumor Volume Ratio is defined as the ratio between the tumors volume at a particular time and the baseline tumor volume, which is the tumor volume at Day 0.
Tumor volume was measured three times weekly from day 0 to day 11 and even further to day 23. Tumor volume was measured using electronic calipers and calculated as length/2×width^2. The mean tumor volume was calculated for each group of mice.
Tumor growth delay is defined as the median time in days for tumors to reach a TVR of 4 minus time for vehicle control tumors to reach the same size. Normalized growth delay is defined as the time in days for tumors in combination treated mice to reach TVR of 4 minus time in days for tumors in drug alone treated mice to reach the same size. Enhancement ratio is defined as normalized tumor growth delay in mice treated with drug and radiation divided by tumor growth delay in mice treated with radiation alone.

[3] = target: Rsk3 (Homo sapiens, UniProt Q15349); assay: biochemical
Rsk3, sequence (Q15349 whole entry): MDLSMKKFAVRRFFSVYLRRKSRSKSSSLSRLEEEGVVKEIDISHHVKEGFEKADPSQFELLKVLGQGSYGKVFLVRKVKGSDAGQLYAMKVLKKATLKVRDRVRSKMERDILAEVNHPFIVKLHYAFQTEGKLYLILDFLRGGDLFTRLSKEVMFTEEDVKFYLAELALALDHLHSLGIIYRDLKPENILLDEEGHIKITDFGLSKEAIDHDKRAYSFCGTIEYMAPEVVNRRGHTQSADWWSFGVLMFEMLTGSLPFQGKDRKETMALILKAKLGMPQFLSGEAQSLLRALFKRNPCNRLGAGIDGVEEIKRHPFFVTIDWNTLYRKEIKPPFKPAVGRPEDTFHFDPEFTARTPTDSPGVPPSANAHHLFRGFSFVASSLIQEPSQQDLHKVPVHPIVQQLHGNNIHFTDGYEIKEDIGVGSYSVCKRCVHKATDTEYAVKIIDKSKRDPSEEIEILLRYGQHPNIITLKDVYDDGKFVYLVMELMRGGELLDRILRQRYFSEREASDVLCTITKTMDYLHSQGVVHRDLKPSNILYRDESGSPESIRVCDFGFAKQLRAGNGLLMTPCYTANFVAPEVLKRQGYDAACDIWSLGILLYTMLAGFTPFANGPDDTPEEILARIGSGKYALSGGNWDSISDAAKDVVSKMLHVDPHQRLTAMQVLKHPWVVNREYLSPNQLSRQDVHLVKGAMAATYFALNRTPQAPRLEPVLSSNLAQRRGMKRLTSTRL

[4] = Compound 1 15 mg/kg IP plus Radiation (2 Gy × 5)
[5] = Compound 1 15 mg/kg IP plus Radiation (3 Gy × 5)
[6] = Compound 1 15 mg/kg IP plus Radiation (4 Gy × 5)
[7] = Compound 1 alone, 15 mg/kg IP Days 0-4

Lyn, sequence (P07948 whole entry): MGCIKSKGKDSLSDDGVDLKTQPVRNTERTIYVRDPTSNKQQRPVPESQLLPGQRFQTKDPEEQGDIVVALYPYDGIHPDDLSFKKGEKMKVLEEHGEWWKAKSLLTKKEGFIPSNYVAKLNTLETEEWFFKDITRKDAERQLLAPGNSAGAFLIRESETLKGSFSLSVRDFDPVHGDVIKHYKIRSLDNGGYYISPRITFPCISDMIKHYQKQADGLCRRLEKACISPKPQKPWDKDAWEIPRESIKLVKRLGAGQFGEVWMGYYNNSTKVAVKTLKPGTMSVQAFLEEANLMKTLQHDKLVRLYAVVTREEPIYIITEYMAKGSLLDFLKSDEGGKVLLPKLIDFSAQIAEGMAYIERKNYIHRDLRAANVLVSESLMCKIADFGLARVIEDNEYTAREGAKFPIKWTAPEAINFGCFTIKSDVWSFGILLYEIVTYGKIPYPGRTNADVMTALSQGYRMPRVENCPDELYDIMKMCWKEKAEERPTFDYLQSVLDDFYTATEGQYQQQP

Cn1cc(-c2[nH]c3cc(NC(=O)[C@H](N)C4CCCCC4)cc4c3c2C=NNC4=O)cn1 [Compound 1]
IC50 [1]: 266 nM | Median time to TVR = 4 [2, 4]: 11.1 days | Normalized Tumor Growth Delay [2, 4]: 3.75 days | Tumor Growth Delay [2, 4]: 2.7 days | Median time to TVR = 4 [2, 5]: 15.1 days | Normalized Tumor Growth Delay [2, 5]: 7.75 days | Tumor Growth Delay [2, 5]: 6.7 days | Median time to TVR = 4 [2, 6]: 13 days | Normalized Tumor Growth Delay [2, 6]: 5.65 days | Tumor Growth Delay [2, 6]: 4.6 days | Median time to TVR = 4 [2, 7]: 7.35 days | Tumor Growth Delay [2, 7]: -1.05 days | mean tumor volume ([2]; day 0, 2 Gy + Cmpd 1 15 mg/kg IP, Days 0-4): 94.51 mm^3 | mean tumor volume ([2]; day 0, 3 Gy + Cmpd 1 15 mg/kg IP, Days 0-4): 104.26 mm^3 | mean tumor volume ([2]; day 0, 4 Gy + Cmpd 1 15 mg/kg IP, Days 0-4): 101.97 mm^3 | mean tumor volume ([2]; day 0, Cmpd 1 only, 15 mg/kg IP Days 0-4): 104.23 mm^3 | mean tumor volume ([2]; day 2, 2 Gy + Cmpd 1 15 mg/kg IP, Days 0-4): 145.53 mm^3 | mean tumor volume ([2]; day 2, 3 Gy + Cmpd 1 15 mg/kg IP, Days 0-4): 149.88 mm^3 | mean tumor volume ([2]; day 2, 4 Gy + Cmpd 1 15 mg/kg IP, Days 0-4): 150.81 mm^3 | mean tumor volume ([2]; day 2, Cmpd 1 only, 15 mg/kg IP Days 0-4): 158.07 mm^3 | mean tumor volume ([2]; day 4, 2 Gy + Cmpd 1 15 mg/kg IP, Days 0-4): 198.57 mm^3 | mean tumor volume ([2]; day 4, 3 Gy + Cmpd 1 15 mg/kg IP, Days 0-4): 210.23 mm^3 | mean tumor volume ([2]; day 4, 4 Gy + Cmpd 1 15 mg/kg IP, Days 0-4): 209.44 mm^3 | mean tumor volume ([2]; day 4, Cmpd 1 only, 15 mg/kg IP Days 0-4): 242.46 mm^3 | mean tumor volume ([2]; day 7, 2 Gy + Cmpd 1 15 mg/kg IP, Days 0-4): 255.23 mm^3 | mean tumor volume ([2]; day 7, 3 Gy + Cmpd 1 15 mg/kg IP, Days 0-4): 200.48 mm^3 | mean tumor volume ([2]; day 7, 4 Gy + Cmpd 1 15 mg/kg IP, Days 0-4): 307.93 mm^3 | mean tumor volume ([2]; day 7, Cmpd 1 only, 15 mg/kg IP Days 0-4): 418.28 mm^3 | mean tumor volume ([2]; day 9, 2 Gy + Cmpd 1 15 mg/kg IP, Days 0-4): 339.76 mm^3 | mean tumor volume ([2]; day 9, 3 Gy + Cmpd 1 15 mg/kg IP, Days 0-4): 164.45 mm^3 | mean tumor volume ([2]; day 9, 4 Gy + Cmpd 1 15 mg/kg IP, Days 0-4): 294.63 mm^3 | mean tumor volume ([2]; day 9, Cmpd 1 only, 15 mg/kg IP Days 0-4): 580.35 mm^3 | mean tumor volume ([2]; day 11, 2 Gy + Cmpd 1 15 mg/kg IP, Days 0-4): 401.96 mm^3 | mean tumor volume ([2]; day 11, 3 Gy + Cmpd 1 15 mg/kg IP, Days 0-4): 210.35 mm^3 | mean tumor volume ([2]; day 11, 4 Gy + Cmpd 1 15 mg/kg IP, Days 0-4): 487.78 mm^3 | mean tumor volume ([2]; day 11, Cmpd 1 only, 15 mg/kg IP Days 0-4): 790.82 mm^3 | mean tumor volume ([2]; day 14, 2 Gy + Cmpd 1 15 mg/kg IP, Days 0-4): 644.80 mm^3 | mean tumor volume ([2]; day 14, 3 Gy + Cmpd 1 15 mg/kg IP, Days 0-4): 283.51 mm^3 | mean tumor volume ([2]; day 14, 4 Gy + Cmpd 1 15 mg/kg IP, Days 0-4): 815.01 mm^3 | mean tumor volume ([2]; day 16, 3 Gy + Cmpd 1 15 mg/kg IP, Days 0-4): 408.01 mm^3 | mean tumor volume ([2]; day 18, 3 Gy + Cmpd 1 15 mg/kg IP, Days 0-4): 433.83 mm^3 | mean tumor volume ([2]; day 21, 3 Gy + Cmpd 1 15 mg/kg IP, Days 0-4): 395.17 mm^3 | mean tumor volume ([2]; day 23, 3 Gy + Cmpd 1 15 mg/kg IP, Days 0-4): 513.31 mm^3 | IC50 [3]: 171 nM

Reference: patent US20090312280A1
